Data set [1] deals with Echinochloa oryzicola. In words: Pre-emergence herbicide activity against Echinochloa oryzicola under greenhouse condition measured after 14 to 20 days. It counts as functional.
The test system of data set [2] is Oryza sativa. Description: Phytotoxicity against two-leaf stage Oryza sativa cv. Nihonbare (rice) planted 1 cm depth measured after […]. It is filed as organism-based. The conditions noted are these: in vivo.
For data set [3], the system named is Oryza sativa. Description: Phytotoxicity against two-leaf stage Oryza sativa cv. Nihonbare (rice) planted 3 cm depth measured after […]. The conditions noted are these: in vivo. It is filed as organism-based.
Data set [4] has as its system Sagittaria pygmaea. Description: Herbicide activity against Sagittaria pygmaea under greenhouse condition compound treated at 0.5 leaf-stage measured after 14 to 20 days. It is filed as functional.
Data set [5] concerns Schoenoplectiella juncoides. Description: Herbicide activity against Schoenoplectiella juncoides under greenhouse condition compound treated at emergence-stage measured after 14 to 20 days. It is filed as functional.
The test system of data set [6] is Echinochloa oryzicola. Description: Herbicide activity against Echinochloa oryzicola under greenhouse condition compound treated at 2 leaf-stage measured after 14 to 20 days. It is filed as functional.

SMILES strings stand for the structures.

Turning to `CC1=C(c2ccccc2)C(=O)N(C(C)(C)c2cc3ccccc3s2)C1`, the MED worked out at 0.313 g/acre in data set [1], 160 g/acre in data set [4], 80 g/acre in data set [5] and 5 g/acre in data set [6]. The MTD was 10 g/acre in data set [2] and 20 g/acre in data set [3].

As to `CCC1=C(c2ccccc2)C(=O)N(C(C)(C)c2nc3ccccc3s2)C1`, the MED in data set [1] amounted to 0.313 g/acre; in data set [4], 80 g/acre; in data set [5], 10 g/acre; in data set [6] it was 5 g/acre. For the same compound, the values for the MTD in data set [2] and in data set [3] were 20 g/acre and 40 g/acre, respectively.

Take `COc1ccc(OC)c(C2=C(C)CN(C(C)(C)c3nc4ccccc4s3)C2=O)c1`: the MED is recorded as 80 g/acre in data set [1], 160 g/acre in data set [4], 160 g/acre in data set [5] and less than 5 g/acre in data set [6]. The MTD is reported as 10 g/acre in data set [2] and 20 g/acre in data set [3].

In the case of `CCOc1ccc2nc(C(C)(C)N3CC(C)=C(c4ccccc4)C3=O)sc2c1`, the MED is 1.25 g/acre in data set [1], 80 g/acre in data set [4], 160 g/acre in data set [5] and less than 5 g/acre in data set [6]. Also, the MTD turned out to be 5 g/acre in data set [2] and 10 g/acre in data set [3].

As for `CC1=C(c2ccccc2)C(=O)N(C(C)(C)c2ncc(C(F)(F)F)cc2Cl)C1`, the MED in data set [1] is listed as less than 5 g/acre; in data set [4], 80 g/acre; in data set [5] it was 80 g/acre; in data set [6], less than 5 g/acre. The MTD in data set [2] worked out at 5 g/acre; in data set [3], 20 g/acre.

As to `CC1=C(c2ccccc2)C(=O)N(C(C)(C)c2nc3ccccc3o2)C1`, the MED stood at 0.625 g/acre in data set [1], 10 g/acre in data set [4], 2.5 g/acre in data set [5] and 5 g/acre in data set [6]. Besides, the MTD in data set [2] is reported as 5 g/acre; in data set [3], 20 g/acre.

Take `CC1=C(c2ccccc2Cl)C(=O)N(C(C)(C)c2nc3ccccc3s2)C1`: the MED in data set [1] came to 2.5 g/acre; in data set [4], 10 g/acre; in data set [5], 10 g/acre; in data set [6] it was 2.5 g/acre. Further, the MTD in data set [2] was found to be 1.25 g/acre; in data set [3], 2.5 g/acre.

As to `CC1=C(c2ccc(-c3ccccc3)cc2)C(=O)N(C(C)(C)c2nc3ccccc3s2)C1`, the MED is less than 10 g/acre in data set [1], 160 g/acre in data set [4], 160 g/acre in data set [5] and less than 5 g/acre in data set [6]. The MTD in data set [2] and in data set [3] was 80 g/acre in each case.

Take `CC1=C(c2ccccc2)C(=O)N(C(C)(C)c2nc3cccnc3s2)C1`: the MED in data set [1] is 0.313 g/acre; in data set [4], 5 g/acre; in data set [5] it was 2.5 g/acre; in data set [6], 2.5 g/acre. Moreover, the MTD is listed as greater than 0.313 g/acre in data set [2] and 0.313 g/acre in data set [3].

Turning to `CC1=C(c2ccccc2)C(=O)N(C(C)(C)c2csc3ccccc23)C1`, the MED is 2.5 g/acre in data set [1], 80 g/acre in data set [4], 80 g/acre in data set [5] and less than 5 g/acre in data set [6]. For the same compound, the values for the MTD in data set [2] and in data set [3] were 2.5 g/acre and 10 g/acre, respectively.

As to `CC1=C(c2ccccc2)C(=O)N(C(C)(C)c2nc3ccc(Cl)cc3s2)C1`, the MED was 1.25 g/acre in data set [1], 80 g/acre in data set [4], 160 g/acre in data set [5] and less than 5 g/acre in data set [6]. In addition, the MTD in data set [2] worked out at 20 g/acre; in data set [3], 40 g/acre.

As for `CC1=C(c2cccc([N+](=O)[O-])c2)C(=O)N(C(C)(C)c2nc3ccccc3s2)C1`, the MED in data set [1] was 160 g/acre; in data set [4], 160 g/acre; in data set [5], 160 g/acre; in data set [6], less than 5 g/acre. Further, the MTD in data set [2] and in data set [3] was 80 g/acre each time.

Turning to `CC1=C(c2ccccc2)C(=O)N(C(C)(C)c2cccs2)C1`, the MED is given as 5 g/acre in data set [1], 20 g/acre in data set [4], 10 g/acre in data set [5] and less than 10 g/acre in data set [6]. The results for the MTD in data set [2] and in data set [3] were 10 g/acre and 20 g/acre, respectively.

For the compound `CC1=C(c2cccc(F)c2)C(=O)N(C(C)(C)c2nc3ccccc3s2)C1`, the MED was found to be 5 g/acre in data set [1], 40 g/acre in data set [4], 40 g/acre in data set [5] and 5 g/acre in data set [6]. Further, the MTD was 5 g/acre in data set [2] and 20 g/acre in data set [3].

`CC1=C(c2cccc(Cl)c2)C(=O)N(C(C)(C)c2nc3ccccc3s2)C1`: the MED is listed as 10 g/acre in data set [1], 80 g/acre in data set [4], 40 g/acre in data set [5] and less than 5 g/acre in data set [6]. In addition, the results for the MTD in data set [2] and in data set [3] were 5 g/acre and 10 g/acre, respectively.

On to `COc1ccccc1C1=C(C)CN(C(C)(C)c2nc3ccccc3s2)C1=O`, for which the MED in data set [1] is listed as 5 g/acre; in data set [4] it was 5 g/acre; in data set [5] it was 5 g/acre; in data set [6], less than 5 g/acre. Besides, the values for the MTD in data set [2] and in data set [3] were greater than 5 g/acre and 5 g/acre, respectively.

On to `COc1cccc2sc(C(C)(C)N3CC(C)=C(c4ccccc4)C3=O)nc12`, for which the MED is on record as 10 g/acre in data set [1], 80 g/acre in data set [4], 80 g/acre in data set [5] and less than 5 g/acre in data set [6]. For the same compound, the values for the MTD in data set [2] and in data set [3] were 20 g/acre and 40 g/acre, respectively.

Take `CC1=C(c2ccccc2)C(=O)N(C(C)(C)c2nc3ccc(F)cc3s2)C1`: the MED in data set [1] is on record as 5 g/acre; in data set [4] it was 40 g/acre; in data set [5] it was 40 g/acre; in data set [6], less than 5 g/acre. The figures for the MTD in data set [2] and in data set [3] were 5 g/acre and 20 g/acre, respectively.

On to `CC1=C(c2ccccc2)C(=O)N(C(C)(C)c2nc3cc(C)ccc3s2)C1`, for which the MED in data set [1] was 10 g/acre; in data set [4], 10 g/acre; in data set [5], 20 g/acre; in data set [6], less than 5 g/acre. Also, the MTD in data set [2] was found to be 2.5 g/acre; in data set [3] it was 40 g/acre.

For the compound `CC1=C(c2ccccc2)C(=O)N(C(C)(C)c2nc3c(Cl)cccc3s2)C1`, the MED in data set [1] came to 1.25 g/acre; in data set [4], 80 g/acre; in data set [5] it was 80 g/acre; in data set [6], 5 g/acre. The MTD in data set [2] is greater than 5 g/acre; in data set [3], 10 g/acre.

As to `CC1=C(c2ccccc2)C(=O)N(C(C)(C)c2nc3cc(Cl)ccc3s2)C1`, the MED in data set [1] was 0.625 g/acre; in data set [4], 80 g/acre; in data set [5] it was 40 g/acre; in data set [6], less than 5 g/acre. For the same compound, the values for the MTD in data set [2] and in data set [3] were 10 g/acre and 40 g/acre, respectively.

As to `CC1=C(c2cccnc2)C(=O)N(C(C)(C)c2nc3ccccc3s2)C1`, the MED is recorded as 2.5 g/acre in data set [1], less than 5 g/acre in data set [4], 2.5 g/acre in data set [5] and less than 5 g/acre in data set [6]. In addition, the MTD is listed as 5 g/acre in data set [2] and 10 g/acre in data set [3].

On to `CC1=C(c2ccccc2O)C(=O)N(C(C)(C)c2nc3ccccc3s2)C1`, for which the MED in data set [1] is on record as 10 g/acre; in data set [4] it was 80 g/acre; in data set [5], 2.5 g/acre; in data set [6] it was less than 5 g/acre. The MTD in data set [2] was found to be 20 g/acre; in data set [3], 5 g/acre.

For the compound `CC1=C(c2ccccc2)C(=O)N(C(C)(C)c2nc3cc(C(F)(F)F)ccc3s2)C1`, the MED in data set [1] is on record as 80 g/acre; in data set [4], 160 g/acre; in data set [5] it was 80 g/acre; in data set [6], less than 5 g/acre. Further, the MTD in data set [2] and in data set [3] was 20 g/acre each time.

For `CC1=C(/C=C/c2ccccc2)C(=O)N(C(C)(C)c2nc3ccccc3s2)C1`, the MED in data set [1] was 160 g/acre; in data set [4] it was 80 g/acre; in data set [5] it was 80 g/acre; in data set [6], less than 5 g/acre. Besides, the MTD in data set [2] and in data set [3] was 80 g/acre throughout.

Consider `CC1=C(c2ccccc2)C(=O)N(C(C)(C)c2nc3ccc(I)cc3s2)C1`, for which the MED in data set [1] is 5 g/acre; in data set [4], 20 g/acre; in data set [5], 20 g/acre; in data set [6], less than 5 g/acre. The MTD in data set [2] is on record as 20 g/acre; in data set [3], 10 g/acre.

As to `CC1=C(c2ccccc2F)C(=O)N(C(C)(C)c2nc3ccccc3s2)C1`, the MED came out at 0.156 g/acre in data set [1], 20 g/acre in data set [4], 10 g/acre in data set [5] and 2.5 g/acre in data set [6]. In addition, the MTD in data set [2] stood at 5 g/acre; in data set [3] it was 10 g/acre.

Regarding `CC(C)(c1nc2ccccc2s1)N1CC(C(F)(F)F)=C(c2ccccc2)C1=O`, the MED in data set [1] is recorded as 1.25 g/acre; in data set [4], 40 g/acre; in data set [5] it was 80 g/acre; in data set [6] it was less than 5 g/acre. The MTD in data set [2] is on record as 5 g/acre; in data set [3], 10 g/acre.

(Values after ChEMBL document CHEMBL3046147, “Synthesis and Herbicidal Activity of 1-Arylalkyl-3-pyrrolin-2-one Derivatives” (J Pestic Sci, 2000).)
